Experimental data as given in patent US20130143929A1, “FUNGICIDAL IMIDAZOLES” (EI DU PONT DE NEMOURS AND COMPANY, priority 2010, published 2013).
Marks after values point to notes of the source that are not given here.

Assays:
Format in all cases: in vivo
[1] = system: Puccinia recondite f. sp. tritici (the causal agent of wheat leaf rust); assay: Test A: wheat leaf rust, preventive spray on wheat seedlings, visual disease rating; conditions: wheat leaf rust, preventive spray on wheat seedlings
Outline: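 This was a preventive test: Puccinia recondite f. sp. tritici inoculum was applied one day after compound spray to run-off. Test suspensions were made in 50/50 acetone/water with 250 ppm surfactant, at 200 ppm (800 g/ha equivalent) or 40 ppm. Visual ratings of % disease control relative to controls were made after 24 h of saturated humidity and 7 growth-chamber days, all at 20° C.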

[2] = system: Blumeria graminis f. sp. tritici (also known as Erysiphe graminis f. sp. tritici, the causal agent of wheat powdery mildew); assay: Test D: wheat powdery mildew, preventive spray on wheat seedlings, visual disease rating; conditions: wheat powdery mildew, preventive spray on wheat seedlings
Outline: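 Preventive test: seedlings sprayed to run-off and inoculated with powdery mildew spores one day later. Suspensions were made in 50/50 acetone/water with 250 ppm Trem 014 surfactant (200 ppm equals 800 g/ha). Visual ratings after 8 days at 20 °C give percent disease control versus controls.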

[3] = system: Botrytis cinerea (the causal agent of tomato Botrytis); assay: Test C: tomato Botrytis, preventive spray on tomato seedlings, visual disease rating; conditions: tomato Botrytis, preventive spray on tomato seedlings
Outline: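 Preventive test: B. cinerea spore inoculation one day after tomato seedlings were sprayed to run-off with compound suspended in 50/50 acetone–water plus 250 ppm surfactant. Plants held 48 h at 20° C in saturated air, then 3 days at 24° C; visual ratings scored 100 (full control) to 0 versus controls; some entries used 40 ppm.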

[4] = system: Septoria tritici (the causal agent of wheat leaf blotch); assay: Test B: wheat leaf blotch, preventive spray on wheat seedlings, visual disease rating; conditions: wheat leaf blotch, preventive spray on wheat seedlings
Outline: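 Preventive test: Septoria tritici spores applied one day after run-off spraying of seedlings (200 ppm equals 800 g/ha; some tests 40 ppm). After 48 h at 24 °C saturated atmosphere and 19 days at 20 °C, disease scored visually as % control relative to untreated plants.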

[5] = asterisk: 40 ppm test suspension
[6] = no asterisk (standard test suspension concentration, not 40 ppm)

Row | Compound | Test A rating (100 = 100% disease control, 0 = no disease control relative to the controls) [1, 5] | Test D rating (100 = 100% disease control, 0 = no disease control relative to the controls) [2, 5] | Test C rating (100 = 100% disease control, 0 = no disease control relative to the controls) [3, 5] | Test B rating (100 = 100% disease control, 0 = no disease control relative to the controls) [4, 5] | Test A rating (100 = 100% disease control, 0 = no disease control relative to the controls) [1, 6] [%] | Test D rating (100 = 100% disease control, 0 = no disease control relative to the controls) [2, 6] [%] | Test C rating (100 = 100% disease control, 0 = no disease control relative to the controls) [3, 6] [%] | Test B rating (100 = 100% disease control, 0 = no disease control relative to the controls) [4, 6] [%]
1 | Cc1ncc(C(O)c2ccc(C#N)cc2F)n1-c1ccc(F)cc1Br (centres unmarked) [compound 311] | 9* % | 0* % | 0* % | 5* % | – | – | – | –
2 | COc1cc(OC)c(Br)c(-n2c(C)nc(Br)c2C(O)c2c(F)cc(F)cc2F)c1 (centres unmarked) [compound 203] | – | – | – | – | 41 | 0 | 66 | 30
3 | Cc1ncc(C(O)c2c(F)cc(F)cc2F)n1-c1c(Cl)cccc1Cl (racemic) [compound 227] | – | – | – | – | 84 | 0 | 40 | 83
4 | COc1ccc(C(O)c2c(Cl)nc(C)n2-c2ccc(F)cc2Cl)c(Cl)c1 (racemic) [compound 255] | – | – | – | – | 100 | 0 | 8 | 96
5 | COc1ccc(C(O)c2c(Cl)nc(C)n2-c2c(F)cc(F)cc2Br)c(Cl)c1 (racemic) [compound 231] | 100* % | 98* % | 99* % | 100* % | – | – | – | –
6 | Cc1nc(Cl)n(-c2ccc(Cl)cc2Cl)c1C(O)c1c(F)cc(Cl)cc1F (racemic) [compound 36] | – | – | – | – | 99 | 0 | 98 | 100
7 | Cc1nc(Cl)c(C(O)c2ccc(F)cc2Cl)n1-c1c(F)cc(F)cc1F (centres unmarked) [compound 166] | 100* % | 43* % | 100* % | 100* % | – | – | – | –
8 | Cc1nc(Cl)c(C(O)c2ccc(F)cc2F)n1-c1c(F)cccc1Br (centres unmarked) [compound 316] | 100* % | 95* % | 99* % | 100* % | – | – | – | –
9 | Cc1cccc(Cl)c1-n1c(C)nc(Br)c1C(O)c1ccc(F)cc1Cl (centres unmarked) [compound 343] | 96* % | 69* % | 84* % | 100* % | – | – | – | –
10 | COc1ccc(C(O)c2c(Br)nc(Br)n2-c2ccc(F)cc2Cl)c(Cl)c1 (centres unmarked) [compound 355] | 100* % | 97* % | 100* % | 100* % | – | – | – | –
11 | Cc1nc(Cl)c(C(O)c2ccc(F)cc2Cl)n1-c1c(F)cccc1Cl (centres unmarked) [compound 200] | 100* % | 98* % | 99* % | 100* % | – | – | – | –
12 | Cc1nc(Br)c(C(O)c2ccc(F)cc2F)n1-c1c(F)cccc1F (centres unmarked) [compound 178] | 100* % | 64* % | 96* % | 100* % | – | – | – | –
13 | OC(c1c(F)ccc(Br)c1Cl)c1c(Cl)nc(Cl)n1-c1ccc(F)cc1Cl (racemic) [compound 18] | – | – | – | – | 100 | 91 | 100 | 100
14 | OC(c1ccc(F)cc1Cl)c1c(Cl)nc(C2CC2)n1-c1c(F)cccc1Br (centres unmarked) [compound 151] | – | – | – | – | 74 | 64 | 0 | 100
15 | Cc1cc(Cl)ccc1C(O)c1c(Cl)nc(C)n1-c1c(F)cccc1F (centres unmarked) [compound 159] | 99* % | 97* % | 99* % | 100* % | – | – | – | –
16 | COc1ccc(C(O)c2c(Cl)nc(Cl)n2-c2ccc(F)cc2F)c(Cl)c1 (racemic) [compound 236] | 100* % | 99* % | 100* % | 100* % | – | – | – | –
17 | Cc1ncn(-c2ccc(F)cc2Cl)c1C(O)c1ccc(Cl)cc1Cl (racemic) [compound 33] | – | 0* % | – | – | 100 | – | 100 | 100
18 | Cc1nc(Cl)n(-c2ccc(F)cc2Cl)c1C(O)c1ccc(F)cc1F (single isomer, unassigned) [compound 27] | – | – | – | – | 100 | 99 | 100 | 100
19 | Cc1cc(F)ccc1C(O)c1c(Cl)nc(Cl)n1-c1ccc(F)cc1F (centres unmarked) [compound 77] | – | – | – | – | 100 | 95 | 94 | 100
20 | Cc1ncc(C(O)c2c(F)cc(F)cc2F)n1-c1ccc(F)cc1F (centres unmarked) [compound 175] | – | – | – | – | 97 | 0 | 9 | 3
